Measurements from PubChem BioAssay (NCI).
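1) Cells in 96-well plates. 2) Compound, 48 h, 5 concentrations. 3) Linear interpolation between surrounding doses. 4) Unreached endpoint = highest concentration. TGI denotes the concentration required for complete inhibition of growth.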

Columns and labels:
Experiment in all cases: growth of human tumour cells (NCI), 48 h
HCC-2998 colon = tested on: HCC-2998 colon
SK-OV-3 ovarian = tested on: SK-OV-3 ovarian
M14 melanoma = tested on: M14 melanoma
SK-MEL-5 melanoma = tested on: SK-MEL-5 melanoma
SF-295 CNS = tested on: SF-295 CNS
OVCAR-3 ovarian = tested on: OVCAR-3 ovarian
SK-MEL-28 melanoma = tested on: SK-MEL-28 melanoma
NCI-H226 lung = tested on: NCI-H226 lung
K-562 leukemia = tested on: K-562 leukemia
SK-MEL-2 melanoma = tested on: SK-MEL-2 melanoma
PC-3 prostate = tested on: PC-3 prostate
RXF 393 renal = tested on: RXF 393 renal
HL-60(TB) leukemia = tested on: HL-60(TB) leukemia
MALME-3M melanoma = tested on: MALME-3M melanoma
EKVX NSCLC = tested on: EKVX NSCLC
HT29 colon = tested on: HT29 colon
BT-549 breast = tested on: BT-549 breast
NCI/ADR-RES ovarian = tested on: NCI/ADR-RES ovarian
MDA-MB-435 = tested on: MDA-MB-435
MOLT-4 leukemia = tested on: MOLT-4 leukemia
A549 NSCLC = tested on: A549 NSCLC
COLO 205 colon = tested on: COLO 205 colon
SW-620 colon = tested on: SW-620 colon
HOP-92 NSCLC = tested on: HOP-92 NSCLC
786-0 renal = tested on: 786-0 renal
MDA-MB-231 breast = tested on: MDA-MB-231 breast
HCT-116 colon = tested on: HCT-116 colon
UACC-257 melanoma = tested on: UACC-257 melanoma
RPMI-8226 leukemia = tested on: RPMI-8226 leukemia
SF-539 CNS = tested on: SF-539 CNS
SN12C renal = tested on: SN12C renal
CAKI-1 renal = tested on: CAKI-1 renal
OVCAR-5 ovarian = tested on: OVCAR-5 ovarian
HOP-62 NSCLC = tested on: HOP-62 NSCLC
NCI-H23 lung = tested on: NCI-H23 lung
U251 CNS = tested on: U251 CNS
SNB-19 CNS = tested on: SNB-19 CNS
OVCAR-4 ovarian = tested on: OVCAR-4 ovarian
KM12 colon = tested on: KM12 colon
OVCAR-8 ovarian = tested on: OVCAR-8 ovarian
CCRF-CEM leukemia = tested on: CCRF-CEM leukemia
HS 578T breast = tested on: HS 578T breast
HCT-15 colon = tested on: HCT-15 colon
NCI-H460 lung = tested on: NCI-H460 lung
LOX IMVI melanoma = tested on: LOX IMVI melanoma
MDA-N = tested on: MDA-N
UO-31 renal = tested on: UO-31 renal
A498 renal = tested on: A498 renal
DU-145 prostate = tested on: DU-145 prostate
MCF7 breast = tested on: MCF7 breast
SF-268 CNS = tested on: SF-268 CNS
UACC-62 melanoma = tested on: UACC-62 melanoma
TK-10 renal = tested on: TK-10 renal
ACHN renal = tested on: ACHN renal
SNB-75 CNS = tested on: SNB-75 CNS
NCI-H522 lung = tested on: NCI-H522 lung
IGROV1 ovarian = tested on: IGROV1 ovarian
SR leukemia = tested on: SR leukemia

For `CC(=O)Oc1c(N2CCCCC2)c(C(=O)c2ccccc2)c(O)c2ccn(N(C)C)c12`, the TGI (HCC-2998 colon) was 37.2 µM, the TGI (SK-OV-3 ovarian) was 65.4 µM and the TGI (M14 melanoma) was 53.7 µM. For the same molecule, the TGI (SK-MEL-5 melanoma) was 29.7 µM, the TGI (SF-295 CNS) was 42.4 µM and the TGI (OVCAR-3 ovarian) was 74.7 µM. For the same molecule, the TGI (SK-MEL-28 melanoma) was 34.8 µM, the TGI (NCI-H226 lung) was 32.4 µM and the TGI (K-562 leukemia) was over 100 µM. For the same molecule, the TGI (SK-MEL-2 melanoma) was 54.6 µM, the TGI (PC-3 prostate) was 33.7 µM and the TGI (RXF 393 renal) was 48.4 µM. For the same molecule, the TGI (HL-60(TB) leukemia) was 29.5 µM, the TGI (MALME-3M melanoma) was 31.8 µM and the TGI (EKVX NSCLC) was 31.2 µM. For the same molecule, the TGI (HT29 colon) was 29.3 µM, the TGI (BT-549 breast) was 42.7 µM and the TGI (NCI/ADR-RES ovarian) was 42.3 µM. The TGI (MDA-MB-435) was 38.1 µM, the TGI (MOLT-4 leukemia) was 49.8 µM and the TGI (A549 NSCLC) was over 100 µM. For the same molecule, the TGI (COLO 205 colon) was 33.3 µM, the TGI (SW-620 colon) was 35.1 µM and the TGI (HOP-92 NSCLC) was 88.6 µM. For the same molecule, the TGI (786-0 renal) was 33.8 µM, the TGI (MDA-MB-231 breast) was 30.6 µM and the TGI (HCT-116 colon) was 22.5 µM. For the same molecule, the TGI (UACC-257 melanoma) was 31.2 µM, the TGI (RPMI-8226 leukemia) was 44.8 µM and the TGI (SF-539 CNS) was 35.9 µM. It also gave a TGI (SN12C renal) of 33.7 µM, a TGI (CAKI-1 renal) of 33.8 µM and a TGI (OVCAR-5 ovarian) of over 100 µM. The TGI (HOP-62 NSCLC) was 93.2 µM, the TGI (NCI-H23 lung) was 38.5 µM and the TGI (U251 CNS) was 33.5 µM. For the same molecule, the TGI (SNB-19 CNS) was 64.3 µM, the TGI (OVCAR-4 ovarian) was 58.2 µM and the TGI (KM12 colon) was 27.1 µM. For the same molecule, the TGI (OVCAR-8 ovarian) was 58.1 µM, the TGI (CCRF-CEM leukemia) was 76.1 µM and the TGI (HS 578T breast) was 66.8 µM. For the same molecule, the TGI (HCT-15 colon) was 35.9 µM, the TGI (NCI-H460 lung) was 51.2 µM and the TGI (LOX IMVI melanoma) was 33.1 µM. The TGI (MDA-N) was 35.3 µM, the TGI (UO-31 renal) was 35.4 µM and the TGI (A498 renal) was 29.1 µM. For the same molecule, the TGI (DU-145 prostate) was 56.6 µM, the TGI (MCF7 breast) was 30.6 µM and the TGI (SF-268 CNS) was 57.5 µM. For the same molecule, the TGI (UACC-62 melanoma) was 30.3 µM, the TGI (TK-10 renal) was 36.8 µM and the TGI (ACHN renal) was 40.2 µM. For the same molecule, the TGI (SNB-75 CNS) was 32.5 µM.

In the case of `CC(O)(P(=O)(O)O)P(=O)(O)OCC(O)CN1CCOCC1` (stereo unspecified), the TGI (HCC-2998 colon) is reported as over 100 µM, the TGI (SK-OV-3 ovarian) is reported as over 100 µM and the TGI (M14 melanoma) is reported as over 100 µM. It also gave a TGI (SF-295 CNS) of over 100 µM, a TGI (SK-MEL-28 melanoma) of over 100 µM and a TGI (NCI-H226 lung) of over 100 µM. The TGI (K-562 leukemia) was over 100 µM, the TGI (PC-3 prostate) was over 100 µM and the TGI (NCI-H522 lung) was over 100 µM. It also gave a TGI (RXF 393 renal) of over 100 µM, a TGI (HL-60(TB) leukemia) of over 100 µM and a TGI (MALME-3M melanoma) of over 100 µM. It also gave a TGI (EKVX NSCLC) of over 100 µM, a TGI (HT29 colon) of over 100 µM and a TGI (BT-549 breast) of over 100 µM. For the same molecule, the TGI (NCI/ADR-RES ovarian) was over 100 µM, the TGI (MDA-MB-435) was over 100 µM and the TGI (MOLT-4 leukemia) was over 100 µM. The TGI (A549 NSCLC) was over 100 µM, the TGI (COLO 205 colon) was over 100 µM and the TGI (SW-620 colon) was over 100 µM. For the same molecule, the TGI (HOP-92 NSCLC) was over 100 µM, the TGI (786-0 renal) was over 100 µM and the TGI (MDA-MB-231 breast) was over 100 µM. The TGI (HCT-116 colon) was over 100 µM, the TGI (IGROV1 ovarian) was over 100 µM and the TGI (UACC-257 melanoma) was over 100 µM. The TGI (RPMI-8226 leukemia) was over 100 µM, the TGI (SF-539 CNS) was over 100 µM and the TGI (CAKI-1 renal) was over 100 µM. For the same molecule, the TGI (OVCAR-5 ovarian) was over 100 µM, the TGI (HOP-62 NSCLC) was over 100 µM and the TGI (NCI-H23 lung) was over 100 µM. The TGI (U251 CNS) was over 100 µM, the TGI (SNB-19 CNS) was over 100 µM and the TGI (KM12 colon) was over 100 µM. The TGI (OVCAR-8 ovarian) was over 100 µM, the TGI (CCRF-CEM leukemia) was over 100 µM and the TGI (HS 578T breast) was over 100 µM. It also gave a TGI (HCT-15 colon) of over 100 µM, a TGI (NCI-H460 lung) of over 100 µM and a TGI (SR leukemia) of over 100 µM. It also gave a TGI (LOX IMVI melanoma) of over 100 µM, a TGI (MDA-N) of over 100 µM and a TGI (UO-31 renal) of over 100 µM. The TGI (A498 renal) was over 100 µM, the TGI (DU-145 prostate) was over 100 µM and the TGI (MCF7 breast) was over 100 µM. The TGI (SF-268 CNS) was over 100 µM, the TGI (UACC-62 melanoma) was over 100 µM and the TGI (TK-10 renal) was over 100 µM. It also gave a TGI (ACHN renal) of over 100 µM.

Molecule `CN(CCNC(=O)c1cn(C)c2c1ccc1cc(Cl)c(Cl)cc12)CCNC(=O)c1cn(C)c2c1ccc1cc(Cl)c(Cl)cc12` has a TGI (SK-OV-3 ovarian) of 4.59 µM, a TGI (SK-MEL-5 melanoma) of 35.2 µM and a TGI (SF-295 CNS) of 6.2 µM. It also gave a TGI (NCI-H226 lung) of 96 µM, a TGI (PC-3 prostate) of 3.26 µM and a TGI (HL-60(TB) leukemia) of 4.23 µM. For the same molecule, the TGI (MALME-3M melanoma) was 24.2 µM, the TGI (EKVX NSCLC) was 10.9 µM and the TGI (HT29 colon) was 3.41 µM. It also gave a TGI (BT-549 breast) of over 75.2 µM, a TGI (NCI/ADR-RES ovarian) of over 100 µM and a TGI (MOLT-4 leukemia) of 0.36 µM. It also gave a TGI (HOP-92 NSCLC) of 12.1 µM, a TGI (786-0 renal) of 3.28 µM and a TGI (MDA-MB-231 breast) of 3.25 µM. For the same molecule, the TGI (HCT-116 colon) was 3.2 µM, the TGI (SF-539 CNS) was 16 µM and the TGI (CAKI-1 renal) was over 100 µM. For the same molecule, the TGI (OVCAR-5 ovarian) was 9.98 µM, the TGI (NCI-H23 lung) was 22 µM and the TGI (U251 CNS) was 3.19 µM. For the same molecule, the TGI (OVCAR-4 ovarian) was 5.67 µM, the TGI (MDA-N) was 3.25 µM and the TGI (A498 renal) was 63.2 µM. The TGI (DU-145 prostate) was 3.43 µM, the TGI (SF-268 CNS) was 15.5 µM and the TGI (UACC-62 melanoma) was 4.88 µM. It also gave a TGI (TK-10 renal) of over 100 µM and a TGI (ACHN renal) of 3.73 µM.
